Series [1] concerns the target T1, recombinant human Meningioma Expressed Antigen 5 (MGEA5), also referred to as O-GlcNAcase (OGA) (Homo sapiens, UniProt O60502).
T1 construct: Full length OGA enzyme was purchased at OriGene (cat # TP322411); purchased OriGene TP322411
T1 sequence (O60502 1-916): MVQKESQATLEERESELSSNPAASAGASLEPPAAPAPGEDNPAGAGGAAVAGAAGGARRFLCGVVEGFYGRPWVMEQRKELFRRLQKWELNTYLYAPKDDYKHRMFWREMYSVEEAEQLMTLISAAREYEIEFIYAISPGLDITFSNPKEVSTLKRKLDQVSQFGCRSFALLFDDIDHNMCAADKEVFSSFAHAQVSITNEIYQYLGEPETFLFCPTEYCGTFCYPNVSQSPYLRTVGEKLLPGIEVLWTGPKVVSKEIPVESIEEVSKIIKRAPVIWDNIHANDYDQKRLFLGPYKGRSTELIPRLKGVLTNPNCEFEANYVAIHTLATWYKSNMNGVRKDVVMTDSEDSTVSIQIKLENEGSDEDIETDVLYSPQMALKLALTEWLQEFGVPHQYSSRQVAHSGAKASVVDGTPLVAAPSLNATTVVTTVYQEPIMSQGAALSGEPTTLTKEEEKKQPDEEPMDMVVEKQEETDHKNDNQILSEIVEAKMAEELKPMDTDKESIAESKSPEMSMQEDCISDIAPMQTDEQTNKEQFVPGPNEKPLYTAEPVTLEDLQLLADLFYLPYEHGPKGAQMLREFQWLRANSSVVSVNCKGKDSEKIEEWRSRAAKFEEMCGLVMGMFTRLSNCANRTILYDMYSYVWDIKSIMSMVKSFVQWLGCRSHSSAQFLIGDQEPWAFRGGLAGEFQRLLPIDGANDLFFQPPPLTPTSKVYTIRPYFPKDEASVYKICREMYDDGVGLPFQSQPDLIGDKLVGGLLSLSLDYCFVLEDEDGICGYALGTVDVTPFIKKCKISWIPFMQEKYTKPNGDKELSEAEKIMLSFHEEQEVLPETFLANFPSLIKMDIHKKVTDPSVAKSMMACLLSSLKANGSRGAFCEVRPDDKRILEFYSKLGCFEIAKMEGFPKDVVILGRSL
In words: OGA biochemical assay: inhibition of FM-GlcNAc hydrolysis, fluorescence; protocol A (10 nM OGA, 1 h) or protocol B (2 nM OGA, 6 h). To be noted: for IC50: read-out: Enzymatic hOGA, pIC50 (converted). How it is done: The hydrolysis FM-GlcNAc (Marker Gene technologies, cat # M1485) results in the formation of ß-D-N-glucosamineacetate and fluorescein. The fluorescence of the latter can be measured at excitation wavelength 485 nm and emission wavelength 538 nm. An increase in enzyme activity results in an increase in fluorescence signal. Full length OGA enzyme was purchased at OriGene (cat # TP322411). The enzyme was stored in 25 mM Tris.HCl, pH 7.3, 100 mM glycine, 10% glycerol at −20° C. […] The assay was performed in 200 mM Citrate/phosphate buffer supplemented with 0.005% Tween-20. 35.6 g Na2HPO4 2 H2O (Sigma, # C0759) were dissolved in 1 L water to obtain a 200 mM solution. […] The buffer to stop the reaction consists of a 500 mM Carbonate buffer, pH 11.0. […] OGA was used at a 10 nM (protocol A) or 2 nM (protocol B) concentration and FM-GlcNAc at a 100 uM final concentration. Dilutions were prepared in assay buffer.
Plates were pre-incubated for 60 min at room temperature and then 2 μl FM-GlcNAc substrate mix added. […] Plates were briefly centrifuged for 1 min at 1000 rpm and incubate at room temperature for 1 h (10 nM OGA, protocol A) or 6 h (2 nM OGA, protocol B). To stop the reaction 5 μl STOP buffer were added and plates centrifuge again 1 min at 1000 rpm. Fluorescence was quantified in the Thermo Scientific Fluoroskan Ascent or the PerkinElmer EnVision with excitation wavelength 485 nm and emission wavelength 538 nm.
For analysis a best-fit curve is fitted by a minimum sum of squares method. From this an IC50 value and Hill coefficient was obtained. High control (no inhibitor) and low control (saturating concentrations of standard inhibitor) were used to define the minimum and maximum values.

The target of the next series is T2, OGA (Homo sapiens, UniProt O60502).
T2 construct: HEK293 cells inducible for P301L mutant human Tau (isoform 2N4R) were established at Janssen; endogenous in cells; host or cells: HEK293 cells inducible for P301L mutant human Tau (2N4R)
T2 sequence (O60502 1-916): T1 sequence (O60502 1-916)
Put plainly: OGA cellular assay: immunocytochemical detection of O-GlcNAcylated proteins in HEK293 cells inducible for P301L mutant human Tau. Format: cell-based. The conditions noted are these: for Emax: HEK293, read-out: Cellular Emax (%). The source says:
HEK293 cells inducible for P301L mutant human Tau (isoform 2N4R) were established at Janssen. Thiamet-G was used for both plate validation (high control) and as reference compound (reference EC50 assay validation). […] Inhibition of OGA will result in an increase of O-GlcNAcylated protein levels resulting in an increased signal in the experiment. […] ICC pictures are imaged with a Perkin Elmer Opera Phenix plate microscope and quantified with the provided software Perkin Elmer Harmony 4.1.
Cells were propagated in DMEM high Glucose (Sigma, # D5796) following standard procedures. […] At the day of compound test medium from assay plates was removed and replenished with 90 μl of fresh Assay Medium. 10 μl of compounds at a 10 fold final concentration were added to the wells. Plates were centrifuged shortly before incubation in the cell incubator for 6 hours. DMSO concentration was set to 0.2%. Medium is discarded by applying vacuum. For staining of cells medium was removed and cells washed once with 100 μl D-PBS (Sigma, # D8537). From next step onwards unless other stated assay volume was always 50 μl and incubation was performed without agitation and at room temperature. […] Before analysis samples were washed 2 times manually for 5 minutes in ICC base buffer.
Imaging is performed using Perkin Elmer Phenix Opera using a water 20× objective and recording 9 fields per well. Intensity readout at 488 nm is used as a measure of O-GlcNAcylation level of total proteins in wells. To assess potential toxicity of compounds nuclei were counted using the Hoechst staining. IC50-values are calculated using parametric non-linear regression model fitting. As a maximum inhibition Thiamet G at a 200 uM concentration is present on each plate. In addition, a concentration response of Thiamet G is calculated on each plate.

The mark [2] stands for this setting: Enzymatic protocol A (10 nM OGA, 1 h).
The mark [3] stands for this setting: Enzymatic protocol B (2 nM OGA, 6 h).

Molecules are shown by their SMILES. Like-named read-outs stand apart in the source and are kept apart here. Bounds are passed on as bounds.

As a reminder, the melting point is the temperature of the solid-liquid transition. In general, Emax refers to the maximal effect, on the per cent scale that the assay sets. `CC(=O)Nc1ncc(S(=O)(=O)N2CCNC(c3cc(C(F)F)n4ncnc4n3)C2)s1` (stereo not shown) [Product 43]: the melting point stood at 226.22 °C. Further, in series [1] (setting [2]), the Emax was 93.1% and the IC50 is 1860 nM.
Molecule `Cc1cc([C@H]2CN([C@H](C)c3ccc4c(c3)OCO4)CCN2)n2ncnc2n1` [Product 56] showed a melting point of 199.25 °C. Further, in series [1] (setting [3]), the Emax stood at 25.8% and the IC50 is more than 10000 nM.
What is called EC50 is the concentration giving half of the maximal effect. A high value points to a need for much substance. In turn, `CC(=O)Nc1ncc(S(=O)(=O)N2CCO[C@H](c3ccnc4ncnn34)C2)s1` [Product 32] had a melting point of 260.51 °C. At OGA, the half-maximal effective concentration (EC50) was more than 10000 nM and the Emax came to 21.8%. In addition, in series [1] (setting [2]), the Emax was found to be 102% and the IC50 was 14.5 nM.
On to `Cc1cc([C@H]2CN([C@@H](C)c3ccc4c(c3)OCO4)CCN2)n2ncnc2n1` [Product 57], for which the melting point came out at 161.31 °C. In addition, in series [1] (setting [3]), the Emax was 93% and the IC50 is 617 nM.
The matching figures for `CC(=O)Nc1ncc(CN2CCOC(c3cc(C(F)(F)F)nc4ncnn34)C2)s1` (stereo not shown) [Product 37]: 242.64 °C, 79.6% and 2690 nM.
Molecule `CC(=O)Nc1ncc(CN2CCCC(c3cc(C(F)F)nc4nccn34)C2)s1` (stereo not shown) [Product 14] yielded a melting point of 226.06 °C. Also, on OGA, the midpoint of the response, the EC50, lay at 70.8 nM and the Emax stood at 108%. Further, in series [1] (setting [2]), the Emax stood at 102% and the IC50 was 8.71 nM.
`CC(=O)Nc1ncc(S(=O)(=O)N2CCC3(CC3)C(c3cc(C(F)F)nc4ncnn34)C2)s1` (stereo not shown) [Product 63] displayed a melting point of 266.56 °C. In series [1] (setting [2]), the Emax was 93.8% and the IC50 is 692 nM.
Regarding `CC(=O)Nc1ncc(CN2CCC[C@@H](c3ccnc4ncnn34)C2)s1` [Product 65], the melting point is 236.16 °C. Moreover, in series [1] (setting [3]), the Emax came to 99.2% and the IC50 was 123 nM.
The molecule `CC(=O)Nc1ncc(CN2CCC(Cc3cnc4cc[nH]c4c3)C2)s1` (stereo not shown) [Product 68] yielded a melting point of 190.79 °C. For the same molecule, on OGA, it took 41.7 nM to reach a half-maximal effect (EC50) and the Emax came to 91.2%. Besides, in series [1] (setting [3]), the Emax was found to be 101% and the IC50 is 5.37 nM.
As for `CC(=O)Nc1ncc(CN2CC[C@H](Cc3cncc4nccn34)C2)s1` [Product 108], the melting point came out at 202.48 °C. In addition, on OGA, the EC50 is 97.7 nM and the Emax is 92.7%. In addition, in series [1] (setting [3]), the Emax stood at 101% and the IC50 was 4.9 nM.
As to `CC(=O)Nc1ncc(CN2CCOC(c3cc(C)nc4ncnn34)C2)s1` (stereo not shown) [Product 35], the melting point was found to be 264.26 °C. Further, in series [1] (setting [2]), the Emax came out at 98.3% and the IC50 is 1580 nM. In addition, in series [1] (setting [3]), the Emax is 86.7% and the IC50 was 1480 nM.
Molecule `CC(=O)Nc1ncc(CN2CCOC(c3cc(C(F)F)n4ncnc4n3)C2)s1` (stereo not shown) [Product 39] displayed a melting point of 209.69 °C. Further, in series [1] (setting [2]), the Emax is 88.4% and the IC50 was 3470 nM.
As to `CC(=O)Nc1ncc(S(=O)(=O)N2CC[C@H](C)[C@@H](c3cc(C(F)F)nc4ncnn34)C2)s1` [Product 7], the melting point came to 264.57 °C. Besides, in series [1] (setting [2]), the Emax stood at 82.2% and the IC50 is 2750 nM.
Molecule `CC(=O)Nc1ncc(CN2CCOC(c3ccnc4ncnn34)C2)s1` (stereo not shown) [Product 36] had a melting point of 251.21 °C. In series [1] (setting [3]), the Emax worked out at 93.6% and the IC50 was 741 nM.
Molecule `CC(=O)Nc1ncc(S(=O)(=O)N2CCNC(c3cc(C)nc4ncnn34)C2)s1` (stereo not shown) [Product 40] returned a melting point of 226.91 °C. In addition, in series [1] (setting [2]), the Emax turned out to be 100% and the IC50 is 16.6 nM.
For `CC(=O)Nc1ncc(S(=O)(=O)N2CCCC(c3cc(C(F)F)n4ccnc4n3)C2)s1` (racemic) [Product 23] the same measures were 280.13 °C, 102% and 295 nM.
`CC(=O)Nc1ncc(CN2CCC(c3cc(C(F)(F)F)nc4ncnn34)C2)s1` (stereo not shown) [Product 20] gave a melting point of 214.29 °C. Besides, in series [1] (setting [3]), the Emax came out at 93.7% and the IC50 was 603 nM.
Take `CC(=O)Nc1ncc(S(=O)(=O)N2CCOC(c3cc(C(F)F)n4ncnc4n3)C2)s1` (stereo not shown) [Product 38]: the melting point is 229.94 °C. In series [1] (setting [2]), the Emax was 101% and the IC50 was 468 nM.
The matching figures for `CC(=O)Nc1ncc(S(=O)(=O)N2CCC[C@@H](c3cc(C(F)F)n4ncnc4n3)C2)s1` [Product 22]: 263.43 °C, 99.1% and 617 nM.
For `CC(=O)Nc1ncc(CN2CCCC(C)(c3cc(C(F)F)n4ncnc4n3)C2)s1` (stereo not shown) [Product 62], the melting point was 217.24 °C. Also, in series [1] (setting [3]), the Emax is 16.2% and the IC50 is more than 10000 nM.
`CC(=O)Nc1ncc(S(=O)(=O)N2CCCC(C)(c3cc(C(F)F)nc4ncnn34)C2)s1` (stereo not shown) [Product 60] registered a melting point of 238.12 °C. In addition, in series [1] (setting [2]), the Emax was determined as 98.7% and the IC50 is 1860 nM.
As to `CC(=O)Nc1ncc(CN2CCCC(Nc3cc(C)nc4ncnn34)C2)s1` (stereo not shown) [Product 51], the melting point was 249.94 °C. For the same molecule, in series [1] (setting [3]), the Emax amounted to 98.5% and the IC50 was 115 nM.
On to `CC(=O)Nc1ncc(CN2CCOC(c3cc(C(F)F)nc4ncnn34)C2)s1` (stereo not shown) [Product 34], for which the melting point came out at 260.21 °C. In series [1] (setting [2]), the Emax was determined as 97.4% and the IC50 is 1580 nM.
With `Cc1cc(C2CN(CC(=O)N3CCCC3)CCO2)n2ncnc2n1` (stereo not shown) [Product 59], the melting point is 127.35 °C. Moreover, in series [1] (setting [3]), the Emax is -1.34% and the IC50 is more than 10000 nM.
The matching figures for `CC(=O)Nc1ncc(CN2CCNC(c3cc(C)nc4ncnn34)C2)s1` (stereo not shown) [Product 42]: 228.95 °C, 93.6% and 437 nM.

Values taken from US20200157092A1, “[1,2,4]-TRIAZOLO [1,5-A]-PYRIMIDINYL DERIVATIVES SUBSTITUTED WITH PIPERIDINE, […] […] OGA INHIBITORS” (priority 2017, published 2020).
